Among the data in ChEMBL document CHEMBL1136748, “A novel N-terminal cyclic dynorphin A analogue cyclo(N,5)[Trp(3),Trp(4),Glu(5)] dynorphin A-(1-11)NH(2) that lacks the basic N-terminus” (J Med Chem, 2003) are Ki and inhibition values, retold here.

Common to all, as to assay type: cell-based
For assay [1], the target named is Kappa-type opioid receptor (Cavia porcellus, UniProt P41144). Put plainly: Binding affinity towards Opioid receptor kappa 1 using [3H]diprenorphine as radioligand in Chinese hamster ovary cells expressing cloned opioid receptors.
Sequence of Kappa-type opioid receptor (P41144 whole entry): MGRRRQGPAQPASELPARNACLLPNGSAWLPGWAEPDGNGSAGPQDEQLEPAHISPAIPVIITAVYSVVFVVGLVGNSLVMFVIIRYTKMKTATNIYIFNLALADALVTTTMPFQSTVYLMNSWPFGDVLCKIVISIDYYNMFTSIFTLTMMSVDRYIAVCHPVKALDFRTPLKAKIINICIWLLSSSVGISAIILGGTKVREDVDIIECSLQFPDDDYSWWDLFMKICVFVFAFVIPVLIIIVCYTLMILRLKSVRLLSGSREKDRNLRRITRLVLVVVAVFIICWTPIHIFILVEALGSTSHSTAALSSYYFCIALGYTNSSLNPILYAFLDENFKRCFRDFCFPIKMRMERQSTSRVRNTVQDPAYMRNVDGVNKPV
Assay [2] addresses Delta-type opioid receptor (Rattus norvegicus, UniProt P33533). Put plainly: Binding affinity towards Opioid receptor delta 1 using [3H]DPDPE as radioligand in Chinese hamster ovary cells expressing cloned opioid receptors.
For assay [3], the target named is Kappa-type opioid receptor (Rattus norvegicus) (UniProt P34975). The assay is described as follows: Tested for maximum percentage inhibition against cloned rat Opioid receptor kappa 1 stably expressed in CHO cells by adenylyl cyclase assay.
Sequence of Kappa-type opioid receptor (Rattus norvegicus) (P34975 whole entry): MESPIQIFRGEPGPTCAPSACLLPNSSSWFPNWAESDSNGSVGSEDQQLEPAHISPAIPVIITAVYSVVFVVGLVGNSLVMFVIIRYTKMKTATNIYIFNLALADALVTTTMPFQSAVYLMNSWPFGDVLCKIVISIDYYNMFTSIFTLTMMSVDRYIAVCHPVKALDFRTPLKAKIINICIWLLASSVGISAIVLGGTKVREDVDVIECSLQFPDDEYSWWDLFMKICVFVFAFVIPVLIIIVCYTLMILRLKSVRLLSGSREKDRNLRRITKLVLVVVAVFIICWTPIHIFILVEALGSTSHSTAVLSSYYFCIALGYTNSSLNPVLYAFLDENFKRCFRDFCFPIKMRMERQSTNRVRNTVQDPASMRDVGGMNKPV
The target in a further assay is Mu-type opioid receptor (Homo sapiens, UniProt P35372). The assay is described as follows: Binding affinity towards Opioid receptor mu 1 using [3H]DAMGO as radioligand in Chinese hamster ovary cells expressing cloned opioid receptors.
Sequence of Mu-type opioid receptor (P35372 whole entry): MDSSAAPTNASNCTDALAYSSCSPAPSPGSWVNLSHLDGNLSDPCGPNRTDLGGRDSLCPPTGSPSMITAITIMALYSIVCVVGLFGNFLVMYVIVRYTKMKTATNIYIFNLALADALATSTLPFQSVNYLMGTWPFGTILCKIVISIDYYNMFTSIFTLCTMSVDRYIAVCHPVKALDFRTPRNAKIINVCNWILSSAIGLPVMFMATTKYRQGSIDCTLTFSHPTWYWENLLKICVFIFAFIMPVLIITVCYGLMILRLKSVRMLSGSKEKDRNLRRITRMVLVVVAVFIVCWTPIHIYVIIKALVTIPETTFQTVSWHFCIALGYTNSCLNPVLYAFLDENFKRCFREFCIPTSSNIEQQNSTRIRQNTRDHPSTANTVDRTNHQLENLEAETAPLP

Where a SMILES comes first, the peptide text is derived from it. Bridges are numbered along the chain shown (N, C = ends). [ ]: non-standard residue; d: D form. Some results are limits rather than exact numbers.

Sequence of Delta-type opioid receptor (P33533 whole entry): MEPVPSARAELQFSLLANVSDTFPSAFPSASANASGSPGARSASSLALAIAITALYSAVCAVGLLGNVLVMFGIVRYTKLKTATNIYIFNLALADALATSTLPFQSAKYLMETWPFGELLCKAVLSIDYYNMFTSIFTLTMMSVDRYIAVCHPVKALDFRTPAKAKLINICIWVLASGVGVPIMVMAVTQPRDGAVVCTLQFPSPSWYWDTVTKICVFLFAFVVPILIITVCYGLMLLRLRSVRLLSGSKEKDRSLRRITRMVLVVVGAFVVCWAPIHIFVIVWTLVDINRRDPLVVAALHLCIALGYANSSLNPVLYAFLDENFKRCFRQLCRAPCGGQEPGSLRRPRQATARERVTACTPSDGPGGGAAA

`CC(=O)N[C@@H](Cc1ccc(O)cc1)C(=O)N[C@@H](CCCCN)C(=O)N[C@@H](Cc1c[nH]c2ccccc12)C(=O)N[C@@H](Cc1c[nH]c2ccccc12)C(=O)N[C@@H](CC(C)C)C(=O)N[C@@H](CCCN=C(N)N)C(=O)N[C@@H](CCCN=C(N)N)C(=O)N[C@H](C)C(=O)N[C@@H](CCCN=C(N)N)C(=O)N1CCC[C@H]1C(=O)N[C@@H](CCCCN)C(N)=O` [VENORPHIN] (Ac-YKWWLRR[dA]RPK-NH2): the values for the Ki in assay [1] and in assay [2] were 19.8 nM and 5320 nM, respectively.
For the molecule Ac-YKWWLRRARPK-NH2, the inhibition (in general, the change of the read-out against control, counted positive when it falls) in assay [3] was found to be 28%.
Same read-out and setting: the value for `CC[C@H](C)[C@H](NC(=O)[C@H](CCCN=C(N)N)NC(=O)[C@H](CCCN=C(N)N)NC(=O)[C@@H]1CCC(=O)N[C@@H](Cc2ccc(O)cc2)C(=O)NCC(=O)N[C@@H](Cc2c[nH]c3ccccc23)C(=O)N[C@@H](Cc2c[nH]c3ccccc23)C(=O)N1)C(=O)N[C@@H](CCCN=C(N)N)C(=O)N1CCC[C@@H]1C(=O)N[C@@H](CCCCN)C(=O)O` was 8%.
With `CC(=O)N[C@@H](Cc1ccc(O)cc1)C(=O)NCC(=O)N[C@@H](Cc1c[nH]c2ccccc12)C(=O)N[C@@H](Cc1c[nH]c2ccccc12)C(=O)N[C@@H](CC(C)C)C(=O)N[C@@H](CCCN=C(N)N)C(=O)N[C@@H](CCCN=C(N)N)C(=O)N[C@H](C)C(=O)N[C@@H](CCCN=C(N)N)C(=O)N1CCC[C@H]1C(=O)N[C@@H](CCCCN)C(N)=O` [[GLY2]VENORPHIN], the Ki (commonly the equilibrium dissociation constant of an inhibitor or competing ligand from its target) at Mu-type opioid receptor was 339 nM; in assay [1], 8.4 nM; in assay [2], over 10000 nM.
The like results for `CC[C@H](C)[C@H](NC(=O)[C@H](CCCNC(=N)N)NC(=O)[C@H](CCCNC(=N)N)NC(=O)[C@@H]1CCC(=O)N[C@@H](Cc2ccc(O)cc2)C(=O)NCC(=O)N[C@@H](Cc2c[nH]c3ccccc23)C(=O)N[C@@H](Cc2c[nH]c3ccccc23)C(=O)N1)C(=O)N[C@@H](CCCNC(=N)N)C(=O)N1CCC[C@H]1C(=O)N[C@@H](CCCCN)C(N)=O` (YGWWERRIRPK-NH2; lactam N-5) were, in that order, 331 nM, 26.8 nM and over 8900 nM.
For `CC(=O)N[C@@H](Cc1ccc(O)cc1)C(=O)NCC(=O)N[C@@H](Cc1c[nH]c2ccccc12)C(=O)N[C@@H](Cc1c[nH]c2ccccc12)C(=O)N[C@@H](CC(C)C)C(=O)N[C@@H](CCCN=C(N)N)C(=O)N[C@@H](CCCN=C(N)N)C(=O)N[C@@H](C)C(=O)N[C@@H](CCCN=C(N)N)C(=O)N1CCC[C@H]1C(=O)N[C@@H](CCCCN)C(N)=O`, the inhibition in assay [3] is 15%.
